# Assay results taken from US20060029563A1, “Cutanceous metabolic bio-activator” (Jean-Noel Thorel, priority 2002, published 2006).
# Where a SMILES comes first, the peptide text is derived from it. [ ]: non-standard residue; d: D form. Cit = NC(=O)NCCC[C@H](N)C(=O)O
# Columns and labels:
# [1] = tested on: secretion of endothelin-1 by normal human keratinocytes; experiment: endothelin-1 secretion by keratinocytes (ELISA), nonirradiated or after UV B irradiation; type: cell-based; conditions: for increase in the basal secretion of endothelin-1 compared with the water control: nonirradiated
# Protocol: The trial is carried out on an in vitro culture of normal human keratinocytes seeded at a density of 10^5 cells/well in 6-well plates.
# The keratinocytes, seeded in 6-well plates at a density of 10^5 cells/well, are cultured in standard medium (Epilife Sigma) for 48 h. Before irradiation, the culture medium is removed, the cells are rinsed with PBS buffer, and 1 ml thereof is left in contact with the cells for the irradiation. The keratinocytes are subjected to a UV B irradiation (312 nm) of 20 mJ/cm^2. An identical nonirradiated condition is realized in parallel.
# After irradiation (and on the nonirradiated parallel), the PBS is removed and the cells are placed under the various conditions studied: • control of water in the culture medium, […]
# Each condition is realized in triplicate.
# After contact for 24 h or 48 h after irradiation, the conditioned culture supernatants are recovered. The amount of endothelin-1 secreted by the keratinocytes is measured on 100 μl of supernatant by means of an ELISA technique (R&D Systems, Abingdon, UK). The endothelin-1 levels are calculated by means of the standard curve prepared with synthesized human endothelin-1. The results are expressed in pg of endothelin-1 standardized with respect to the protein concentration (pg ET-1/mg of proteins).
# HaCaT cells = experiment: growth of HaCaT cells, WST-1 conversion method; type: cell-based, human
# Protocol: The objective of this trial is to evaluate the effect of the combination ATP+peptides, added to a culture medium, on the growth of an immortalized line of human […], HaCaT cells.
# The study is carried out on a culture prepared in the standard culture medium for HaCaT cells, DMEM (Sigma) in the presence of fetal calf serum (SVF) at 2 or 10%.
# The HaCaT cells are seeded at low density in a 96-well plate in the standard medium (DMEM+10% SVF) and grow for 24 h after seeding in this medium.
# On the 2nd day, the cells are placed under the various conditions studied.
# The test concentrations in terms of ATP, β-alanyl-L- histidine (Carnosine) and L-citrullyl-L-arginine (exsy- algine) are determined subsequent to preliminary cytotoxicity studies.
# The following conditions are prepared: • A control condition: culture medium alone+SVF • A condition consisting of β-alanyl-L-histidine alone at 0.5%. • A condition consisting of L-citrullyl-L-arginine are known at 0.5%. • A condition consisting of ATP alone at 1 μg/ml. • A condition consisting of ATP (1 μg/ml)+β-alanyl-L-histidine (0.5%). • A condition consisting of ATP (1 μg/ml)+L-citrullyl-L-arginine (0.5%) • A condition consisting of ATP (1 μg/ml)+β-alanyl-L-histidine (0.5%)+L- citrullyl-L-arginine (0.5%).
# These various conditions are prepared both in the DMEM containing 2% SVF and the DMEM containing 10% SVF.
# Each condition is prepared in triplicate. The media are not renewed in the course of the experiment.
# The cell density is evaluated 24 h after seeding of the cells, before the cells are brought into contact with the various study conditions (=T0), and the growth of the HaCaT cells is then evaluated on the 2nd, 5th and 7th days of culture by means of the WST-1 conversion method (reading at 450 nm).
# The cell growth is objectified by measuring the cell viability at various times of the experiment. The results obtained give the percentage cell viability calculated with respect to the initial cell density at T0, for which it is estimated that the cell density is equal to 100%. The effects of the various products on cell growth are analyzed at the various times of the experiment, relative to the nontreated control at the same time of the experiment.
# normal human melanocytes = experiment: comet assay on UVA-irradiated normal human melanocytes; type: cell-based; conditions: 4 mM each
# Protocol: Cultures of normal human melanocytes (MHNs) are prepared from fore skins of infants and of newborns suffering from phimosis. The melanocytes obtained from skin fragments are placed in MCDB 153 medium (Sigma St Louis, Mo., USA) supplemented with 30 μg/ml of bovine pituitary extract (BPE) (Life Technologies, Paisley, England), 2% of fetal calf serum (SVF) (Dominique Dutscher, Brumath, France), 16 nM of phorbol-12-myristate-13-acetate (Sigma), 5 μg/ml of insulin and 1.1 μM of hydrocortisone (Sigma). The cultures are maintained in an incubator at 37° C. and-in-an atmosphere containing 5% CO2. Pure cultures of melanocytes are obtained after 2 to 3 weeks.
# All the compositions tested are solubilized in DMSO at the maximum concentrations permitted. Preliminary trials are carried out in order to determine the subtoxic concentrations on the keratinocytes. The final concentration of DMSO is always less than 2%.
# The melanocytes are brought into contact with the product for 30 min at 37° C., and are then irradiated with UVA radiation. The UVA irradiations are generated by means of a Bio-Sun UV-irradiator (Vilbert Lourmat, Marne la Vallée). This device is equipped with monochromatic lamps that emit a wavelength of 312 nm and/or 365 nm. The lamps deliver a calculated energy by means of an RMW-365/312 radiometer. The energies delivered are 0.8 J/cm^2 for the UVA range. The “comet” assay is carried out immediately after exposure. Two types of controls are included in these experiments: • negative controls: melanocytes that are not treated but […]; melanocytes treated for 30 min with the composition tested, but not irradiated. • Positive control: melanocytes that are not treated but are irradiated.
# After treatment with a typsin/EDTA mixture (0.05%/0.02%) for 2 to 3 minutes, the cultures are 15 recovered by centrifugation and placed in PBS buffer without Ca++ and without Mg++ (Sigma). Following a second centrifugation, the cells (4.5-5.0×10^4 cells) are suspended in 0.5% low melting point (LMP) agarose (Sigma). The mixture is directly deposited onto microscope slides coated with a prelayer of agarose (1.6%) dried overnight at ambient temperature and freshly precoated with a second layer of agarose (0.8%).
# The protocol for the comet assay is that of De Meo et al., incorporating the “dry slide” technique. After the irradiations, the slides are placed in a lysis bath (2.5 M NaCl, 100 mM Na2EDTA, 10 mM Tris-HCl, pH 10, 1% of sodium sarcosinate, 1% of triton X-100 and 10% of DMSO). The cell lysis is performed at 4° C. for 60 minutes, followed by denaturation of the DNA at ambient temperature for 20 min in a strongly alkaline solution (1 mM Na2EDTA and 300 mM NaOH, pH>13.0). After electrophoresis (25 V, 300 mA) for 20 min., the slides are neutralized with the Tris-HCl buffer (0.4 M; pH 7.4) and dehydrated in absolute ethanol or methanol.
# The slides are stained with ethidium bromide solution (75 μl of 2 μg/ml) and observed using a BH2-RFL fluorescence microscope (Olympus, Japan) equipped with a 20BG-W dichroic filter (excitation: 515-560 nm; emission: 590 nm) and with an Apo D-Plan 20× objective. The image analysis is carried out with a high sensitivity monochrome CCD camera (Cohu 4912-5000) coupled to a Matrox IP-8 acquisition board. The entire assembly is controlled by means of the Fenestra Komet software (Kinetic Imaging, Liverpool, UK, version 3.1).
# A total of 100 cells per sample (50 cells/slide) is analyzed. The parameter used is “tail DNA”, which is defined as the percentage of DNA in the tail of the “comet”. For each series of experiments, a negative control (nonirradiated cells) and a positive control (irradiated cells without composition tested) are included.
# Nonlinear regressions based on a χ^2 function are calculated directly from the TM (tail moment) distribution frequencies for each sample. Specifically, Bauer et al. have recently shown that these distributions follow a χ^2 function. […]
# [2] = prior cell viability test on normal human keratinocytes; type: cell-based; conditions: after 48 h of contact, highest 2 concentrations, 0.0001% and 0.01%
# Protocol: In order to determine the concentrations applicable in the context of the trial, a prior cell viability test is carried out on normal human keratinocytes.
# L-citrullyl-L-arginine is dissolved in water and the final concentration is fixed at 0.1%.
# 6 dilutions of L-citrullyl-L-arginine from 10^−4% to 10^−2% are brought into contact with the cells for 24 h and 48 h. A “water” condition is realized as a control.
# For the trial, the L-citrullyl-L-arginine will be tested at the highest 2 concentrations that allow the cell viability to be maintained at a level greater than 80%, after 48 h of contact, i.e. 0.0001% and 0.01%.
# [3] = NI: nonirradiated melanocytes pretreated 30 min
# [4] = melanocytes irradiated with UVA (0.8 J/cm^2), pretreated 30 min
structure (smiles),measurement,setting,value
"Nc1ncnc2c1ncn2[C@@H]1O[C@H](COP(=O)(O)OP(=O)(O)OP(=O)(O)O)[C@@H](O)[C@H]1O [ATP, adenosine triphosphate]",effect on endothelin-1 synthesis (in words),[1]; ATP alone,do not show any effect
same,change in cell viability,"HaCaT cells; ATP alone, after 2 to 5 days of contact",−5 to −10%
same,effect on cell viability (in words),"HaCaT cells; after 2 days of culture, ATP 1 μg/ml",substantially decreases cell viability
same,effect on cell viability / growth (in words),HaCaT cells; after 5 days of culture,substantially decreases cell viability
same,OTM-χ^2,normal human melanocytes; [3],2.08 ± 0.02
same,Degree of protection (%),normal human melanocytes; [4],14.6%
same,OTM-χ^2,normal human melanocytes; [4],6.31 ± 0.38
N=C(N)NCCC[C@H](NC(=O)[C@@H](N)CCCNC(N)=O)C(=O)O [L-citrullyl-L-arginine] (H-[Cit]-Arg-OH),viability at 48 h,[2],> 80%
same,effect on the secretion of endothelin-1 (in words),"[1]; 0.01%, conclusion",considerable activating effect
same,increase in secretion of endothelin-1 compared with the irradiated water control,"[1]; UV B 20 mJ/cm^2, 24 h, 0.0001%",6%
same,increase in secretion of endothelin-1 compared with the irradiated water control,"[1]; UV B 20 mJ/cm^2, 24 h, 0.001%",28%
same,increase in secretion of endothelin-1 compared with the irradiated water control,"[1]; UV B 20 mJ/cm^2, 48 h, 0.0001%",4%
same,increase in secretion of endothelin-1 compared with the irradiated water control,"[1]; UV B 20 mJ/cm^2, 48 h, 0.01%",63%
same,increase in the basal secretion of endothelin-1 compared with the water control,"[1]; 24 h, 0.0001%",20%
same,increase in the basal secretion of endothelin-1 compared with the water control,"[1]; 24 h, 0.01%",70%
same,increase in the basal secretion of endothelin-1 compared with the water control,"[1]; 48 h, 0.0001%",26%
same,increase in the basal secretion of endothelin-1 compared with the water control,"[1]; 48 h, 0.01%",82%
same,cell growth relative to the nontreated control,"HaCaT cells; after 2 days of culture, 0.1% and 0.5%",+5%
same,effect on cell viability / growth (in words),HaCaT cells; after 5 days of culture,does not stimulate cell growth
same,OTM-χ^2,normal human melanocytes; [3],2.06 ± 0.02
same,Degree of protection (%),normal human melanocytes; [4],67.7%
same,OTM-χ^2,normal human melanocytes; [4],2.22 ± 0.20
NCCC(=O)N[C@@H](Cc1c[nH]cn1)C(=O)O [β-alanyl-L-histidine],effect on cell growth (in words),"HaCaT cells; after 2 days of culture, 0.1%",no effect on growth
same,cell growth relative to the nontreated control,"HaCaT cells; after 2 days of culture, 0.5%, 2% SVF",+22%
same,cell growth relative to the nontreated control,"HaCaT cells; after 5 days of culture, 0.5%",+12%
same,"effect on cell viability / growth (in words), conclusion","HaCaT cells; conclusion of the trial, at the concentrations tested",exerts a stimulatory effect on cell growth
